This note sets out measurements from ChEMBL document CHEMBL4828725 (Eur J Med Chem, 2021).

Structures are written as SMILES. pIC50: −log10 of the molar value.

Assay [1] relates to Aspergillus niger. In words: Inhibition of Aspergillus niger amyloglucosidase using p-nitrophenyl glycoside as substrate assessed as release of p-nitrophenol at 1000 uM measured by spectrometric assay relative to control.
Assay [2] is described as follows: Inhibition of bovine liver beta-glucosidase using p-nitrophenyl glycoside as substrate assessed as release of p-nitrophenol measured by spectrometric assay. On the set-up: species or system Bos taurus. The following applies: for pIC50: read-out: IC50.
A short description of assay [3]: Inhibition of snail beta-mannosidase using p-nitrophenyl glycoside as substrate assessed as release of p-nitrophenol measured by spectrometric assay. On the set-up: species or system Helix pomatia.
Assay [4] can be described thus: Inhibition of rat intestinal maltase using maltose as substrate assessed as release of D-glucose measured by spectrometric assay.
In assay [5] the target is Alpha-galactosidase (Coffea arabica, UniProt Q42656). Kind of assay: Inhibition of coffee beans alpha-galactosidase using p-nitrophenyl glycoside as substrate assessed as release of p-nitrophenol measured by spectrometric assay. The following applies: for pIC50: read-out: IC50.
Chain of Alpha-galactosidase (Q42656 whole entry): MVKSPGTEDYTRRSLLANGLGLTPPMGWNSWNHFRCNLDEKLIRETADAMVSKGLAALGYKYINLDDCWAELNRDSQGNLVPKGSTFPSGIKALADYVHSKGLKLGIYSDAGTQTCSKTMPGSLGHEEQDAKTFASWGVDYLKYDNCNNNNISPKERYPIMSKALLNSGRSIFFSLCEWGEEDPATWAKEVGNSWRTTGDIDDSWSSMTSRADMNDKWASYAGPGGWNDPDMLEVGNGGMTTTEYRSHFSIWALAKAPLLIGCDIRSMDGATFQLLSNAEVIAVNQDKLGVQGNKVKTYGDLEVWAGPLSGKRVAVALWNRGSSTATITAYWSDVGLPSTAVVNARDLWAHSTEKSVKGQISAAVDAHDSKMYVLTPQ
Assay [6] concerns the target T1, Tissue alpha-L-fucosidase (Bos taurus, UniProt Q2KIM0).
T1 sequence (Q2KIM0 whole entry): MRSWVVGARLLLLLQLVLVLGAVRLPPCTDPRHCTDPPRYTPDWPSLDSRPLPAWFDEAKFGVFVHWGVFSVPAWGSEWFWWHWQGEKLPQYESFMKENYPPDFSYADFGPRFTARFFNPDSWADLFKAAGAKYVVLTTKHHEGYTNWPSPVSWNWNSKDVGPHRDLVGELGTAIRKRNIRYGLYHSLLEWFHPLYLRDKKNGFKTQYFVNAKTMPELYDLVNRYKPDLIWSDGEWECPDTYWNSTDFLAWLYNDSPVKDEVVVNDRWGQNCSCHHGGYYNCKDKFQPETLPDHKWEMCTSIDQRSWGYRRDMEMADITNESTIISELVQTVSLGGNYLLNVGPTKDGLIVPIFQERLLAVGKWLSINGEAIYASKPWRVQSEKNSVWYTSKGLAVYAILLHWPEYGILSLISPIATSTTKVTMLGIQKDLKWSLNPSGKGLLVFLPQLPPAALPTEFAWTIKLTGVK
In words: Inhibition of bovine kidney alpha-L-fucosidase using p-nitrophenyl glycoside as substrate assessed as release of p-nitrophenol measured by spectrometric assay.

Assay [7] relates to Prunus dulcis. In words: Inhibition of almond beta-glucosidase using p-nitrophenyl glycoside as substrate assessed as release of p-nitrophenol at 1000 uM measured by spectrometric assay relative to control.
For assay [8], the target named is T2, Alpha-mannosidase (Canavalia ensiformis) (UniProt C0HJB3).
T2 sequence (whole entry): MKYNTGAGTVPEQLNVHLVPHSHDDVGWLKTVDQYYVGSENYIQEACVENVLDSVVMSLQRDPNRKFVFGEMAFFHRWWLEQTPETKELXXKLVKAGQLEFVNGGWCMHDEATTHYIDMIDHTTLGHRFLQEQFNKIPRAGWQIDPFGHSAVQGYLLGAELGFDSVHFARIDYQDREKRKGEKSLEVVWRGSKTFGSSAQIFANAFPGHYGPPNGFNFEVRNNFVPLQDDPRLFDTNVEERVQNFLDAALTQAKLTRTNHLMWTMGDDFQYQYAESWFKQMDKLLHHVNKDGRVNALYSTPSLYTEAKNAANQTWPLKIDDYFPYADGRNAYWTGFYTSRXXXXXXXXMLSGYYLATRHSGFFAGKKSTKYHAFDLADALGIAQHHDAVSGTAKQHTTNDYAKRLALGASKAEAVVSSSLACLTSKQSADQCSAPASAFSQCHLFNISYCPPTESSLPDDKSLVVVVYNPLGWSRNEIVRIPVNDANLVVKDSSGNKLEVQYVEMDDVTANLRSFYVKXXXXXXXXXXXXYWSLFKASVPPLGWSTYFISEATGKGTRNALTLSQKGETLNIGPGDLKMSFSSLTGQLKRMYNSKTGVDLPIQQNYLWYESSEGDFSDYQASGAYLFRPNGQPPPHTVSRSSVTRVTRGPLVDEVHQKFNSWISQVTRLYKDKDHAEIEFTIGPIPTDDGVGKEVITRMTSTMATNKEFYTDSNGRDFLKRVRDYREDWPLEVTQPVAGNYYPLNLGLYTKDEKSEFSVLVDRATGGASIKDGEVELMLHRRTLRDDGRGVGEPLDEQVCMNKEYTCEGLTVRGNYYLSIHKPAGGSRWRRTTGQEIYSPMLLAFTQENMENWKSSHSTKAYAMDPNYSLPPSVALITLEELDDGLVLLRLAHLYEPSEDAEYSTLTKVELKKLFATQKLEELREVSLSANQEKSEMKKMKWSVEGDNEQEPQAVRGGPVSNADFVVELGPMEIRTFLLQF
In words: Inhibition of jack bean alpha-mannosidase using p-nitrophenyl glycoside as substrate assessed as release of p-nitrophenol at 1000 uM measured by spectrometric assay relative to control.

The nature of assay [9]: Inhibition of Aspergillus niger amyloglucosidase using p-nitrophenyl glycoside as substrate assessed as release of p-nitrophenol measured by spectrometric assay.
For assay [10], the target named is T3, Tissue alpha-L-fucosidase (Bos taurus) (UniProt Q2KIM0).
T3 sequence (whole entry): T1 sequence (Q2KIM0 whole entry)
Kind of assay: Inhibition of bovine kidney alpha-L-fucosidase using p-nitrophenyl glycoside as substrate assessed as release of p-nitrophenol at 1000 uM measured by spectrometric assay relative to control. Type of assay: tissue-based.

Assay [11] in a line: Inhibition of rice alpha-glucosidase using p-nitrophenyl glycoside as substrate assessed as release of p-nitrophenol measured by spectrometric assay. On the set-up: species or system Oryza sativa. The following applies: for pIC50: read-out: IC50.
Assay [12] has as its target T4, Sucrase-isomaltase, intestinal (Rattus norvegicus, UniProt P23739). In words: Inhibition of rat intestinal isomaltase using p-nitrophenyl glycoside as substrate assessed as release of p-nitrophenol measured by spectrometric assay. The following applies: read-out: IC50.
In assay [13] the target is Beta-glucuronidase (Escherichia coli (strain K12), UniProt P05804). Kind of assay: Inhibition of Escherichia coli beta-glucuronidase using p-nitrophenyl glycoside as substrate assessed as release of p-nitrophenol measured by spectrometric assay. The following applies: for pIC50: read-out: IC50.
Chain of Beta-glucuronidase (P05804 whole entry): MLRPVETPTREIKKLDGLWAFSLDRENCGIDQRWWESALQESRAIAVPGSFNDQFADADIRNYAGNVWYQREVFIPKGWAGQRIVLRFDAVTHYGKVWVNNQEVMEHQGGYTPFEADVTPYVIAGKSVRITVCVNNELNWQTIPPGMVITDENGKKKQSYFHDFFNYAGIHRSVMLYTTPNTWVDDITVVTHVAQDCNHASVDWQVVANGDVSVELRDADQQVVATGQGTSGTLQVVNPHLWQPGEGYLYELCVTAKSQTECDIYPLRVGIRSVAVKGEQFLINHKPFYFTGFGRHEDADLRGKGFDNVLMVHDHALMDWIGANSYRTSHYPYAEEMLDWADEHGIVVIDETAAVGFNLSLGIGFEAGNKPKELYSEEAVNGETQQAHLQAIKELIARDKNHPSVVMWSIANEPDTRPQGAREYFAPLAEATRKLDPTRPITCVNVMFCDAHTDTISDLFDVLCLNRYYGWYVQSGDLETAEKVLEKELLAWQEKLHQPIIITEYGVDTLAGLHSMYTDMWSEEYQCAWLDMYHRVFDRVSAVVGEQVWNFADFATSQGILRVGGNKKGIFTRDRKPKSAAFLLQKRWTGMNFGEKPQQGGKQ
Assay [14] can be described thus: Inhibition of almond beta-glucosidase using p-nitrophenyl glycoside as substrate assessed as release of p-nitrophenol measured by spectrometric assay. On the set-up: species or system Prunus dulcis.
Assay [15] can be described thus: Inhibition of porcine kidney alpha-trehalase using p-nitrophenyl glycoside as substrate assessed as release of p-nitrophenol measured by spectrometric assay. On the set-up: species or system Sus scrofa.
A short description of assay [16]: Inhibition of jack bean alpha-mannosidase using p-nitrophenyl glycoside as substrate assessed as release of p-nitrophenol measured by spectrometric assay. On the set-up: species or system Canavalia ensiformis.
Assay [17] relates to Penicillium decumbens. Kind of assay: Inhibition of Penicillium decumbens alpha-L-rhamnosidase using p-nitrophenyl glycoside as substrate assessed as release of p-nitrophenol at 1000 uM measured by spectrometric assay relative to control.
A short description of assay [18]: Inhibition of bovine liver beta-galactosidase using p-nitrophenyl glycoside as substrate assessed as release of p-nitrophenol measured by spectrometric assay. Type of assay: tissue-based, Bos taurus. As to conditions: for pIC50: read-out: IC50; call rule not given here.
Assay [19] relates to Helix pomatia. In words: Inhibition of snail beta-mannosidase using p-nitrophenyl glycoside as substrate assessed as release of p-nitrophenol at 1000 uM measured by spectrometric assay relative to control.
Assay [20] concerns the target T4, Sucrase-isomaltase, intestinal. Kind of assay: Inhibition of rat intestinal sucrase using p-nitrophenyl glycoside as substrate assessed as release of p-nitrophenol measured by spectrometric assay. The following applies: read-out: IC50.
Assay [21] is described as follows: Inhibition of Penicillium decumbens alpha-L-rhamnosidase using p-nitrophenyl glycoside as substrate assessed as release of p-nitrophenol measured by spectrometric assay.
The species entered for assay [22] is Sus scrofa. Kind of assay: Inhibition of porcine kidney alpha-trehalase using p-nitrophenyl glycoside as substrate assessed as release of p-nitrophenol at 1000 uM measured by spectrometric assay relative to control.
Assay [23] is filed under the species Bos taurus. Kind of assay: Inhibition of bovine liver beta-glucosidase using p-nitrophenyl glycoside as substrate assessed as release of p-nitrophenol at 1000 uM measured by spectrometric assay relative to control. Type of assay: tissue-based.
Assay [24] concerns the target Beta-glucuronidase (Escherichia coli (strain K12)) (UniProt P05804). In words: Inhibition of Escherichia coli beta-glucuronidase using p-nitrophenyl glycoside as substrate assessed as release of p-nitrophenol at 1000 uM measured by spectrometric assay relative to control.

T4 sequence (P23739 1-1013 limits assumed): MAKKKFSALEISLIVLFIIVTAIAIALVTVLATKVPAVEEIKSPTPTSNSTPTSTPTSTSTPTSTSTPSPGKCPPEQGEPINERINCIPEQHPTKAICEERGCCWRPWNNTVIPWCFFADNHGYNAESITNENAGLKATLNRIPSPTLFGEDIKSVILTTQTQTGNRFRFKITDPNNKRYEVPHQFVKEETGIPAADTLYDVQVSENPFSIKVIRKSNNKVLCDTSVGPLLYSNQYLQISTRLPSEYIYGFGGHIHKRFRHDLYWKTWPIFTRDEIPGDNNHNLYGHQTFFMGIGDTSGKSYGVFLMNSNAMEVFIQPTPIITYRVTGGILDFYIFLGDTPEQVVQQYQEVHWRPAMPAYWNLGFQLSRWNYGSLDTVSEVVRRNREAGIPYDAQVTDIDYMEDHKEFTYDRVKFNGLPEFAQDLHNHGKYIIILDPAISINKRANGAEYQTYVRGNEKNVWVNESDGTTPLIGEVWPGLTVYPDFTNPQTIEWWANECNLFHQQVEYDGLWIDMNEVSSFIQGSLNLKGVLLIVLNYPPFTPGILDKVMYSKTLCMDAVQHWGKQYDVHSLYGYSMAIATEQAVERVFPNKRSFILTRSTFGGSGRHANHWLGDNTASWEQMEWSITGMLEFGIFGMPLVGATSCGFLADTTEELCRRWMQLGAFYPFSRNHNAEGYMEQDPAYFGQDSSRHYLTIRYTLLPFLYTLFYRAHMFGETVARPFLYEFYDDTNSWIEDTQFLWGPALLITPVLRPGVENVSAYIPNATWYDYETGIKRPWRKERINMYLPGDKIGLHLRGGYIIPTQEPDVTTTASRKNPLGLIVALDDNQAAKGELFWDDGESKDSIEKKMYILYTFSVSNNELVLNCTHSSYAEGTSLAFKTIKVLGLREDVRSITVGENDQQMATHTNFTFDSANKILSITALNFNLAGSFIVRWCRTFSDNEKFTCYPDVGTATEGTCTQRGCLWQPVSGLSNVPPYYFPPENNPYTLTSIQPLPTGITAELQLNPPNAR
T4 sequence (P23739 1014-1841 limits assumed): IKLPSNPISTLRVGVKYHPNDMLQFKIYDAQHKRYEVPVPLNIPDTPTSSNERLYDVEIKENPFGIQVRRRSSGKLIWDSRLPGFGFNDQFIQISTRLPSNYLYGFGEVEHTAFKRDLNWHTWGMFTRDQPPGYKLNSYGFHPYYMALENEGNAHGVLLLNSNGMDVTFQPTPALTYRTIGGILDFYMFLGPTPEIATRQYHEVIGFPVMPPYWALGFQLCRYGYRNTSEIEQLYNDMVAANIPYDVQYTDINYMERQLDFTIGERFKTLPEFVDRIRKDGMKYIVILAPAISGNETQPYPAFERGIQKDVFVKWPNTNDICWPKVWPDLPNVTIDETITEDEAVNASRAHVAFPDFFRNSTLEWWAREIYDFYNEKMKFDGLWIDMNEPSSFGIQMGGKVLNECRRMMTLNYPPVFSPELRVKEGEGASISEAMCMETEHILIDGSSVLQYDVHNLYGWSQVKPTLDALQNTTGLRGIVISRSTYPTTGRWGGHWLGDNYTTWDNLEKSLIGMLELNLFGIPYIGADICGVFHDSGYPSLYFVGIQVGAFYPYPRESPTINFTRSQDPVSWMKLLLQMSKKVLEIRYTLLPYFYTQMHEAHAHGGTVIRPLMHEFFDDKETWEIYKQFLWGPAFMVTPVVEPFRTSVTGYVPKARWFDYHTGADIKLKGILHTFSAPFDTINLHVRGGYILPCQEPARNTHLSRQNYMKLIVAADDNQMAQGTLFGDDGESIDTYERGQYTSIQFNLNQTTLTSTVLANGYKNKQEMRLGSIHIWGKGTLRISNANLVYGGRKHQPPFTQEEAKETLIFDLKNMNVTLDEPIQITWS
Chain of Beta-glucuronidase (Escherichia coli (strain K12)) (P05804 whole entry, looked up): as the sequence (P05804 whole entry) above

On to `CCCCCCCCC[C@]1(CO)NC[C@H](O)[C@@H](O)[C@@H]1O.Cl`, for which the inhibition in [1] stood at 14.1%; in assay [7], 41.7%; in assay [8], 10.7%; in assay [10], 25.3%; in [17], 9.1%; in assay [19], 2.5%. Also, the negative-log IC50 (pIC50) was 3.68 in [2]; 6.92 in [4]; 4.82 in assay [5]; 7.55 in [11]; 5.77 in assay [12]; 3.80 in assay [13]. Also, the values for the negative-log IC50 (pIC50) in assay [15] (read-out: IC50), in [18] and in [20] were 3.31, 4.17 and 6.35, respectively. Further, the IC50 entry in [3], in assay [6], in assay [9], in assay [14], in [16] and in [21] was “Not Active” each time.
Take `OC[C@@H]1NC[C@H](O)[C@@H](O)[C@@H]1O`: the IC50 result in assay [2], in assay [3], in [5], in assay [6], in [9] and in [11] was “Not Active” throughout. The IC50 entry in assay [13], in assay [14], in [15], in assay [16], in assay [18] and in [21] was “Not Active” each time. Further, the negative logarithm of the IC50 (pIC50) in assay [4] was 5.08.
As for `CCCC[C@]1(CO)NC[C@H](O)[C@@H](O)[C@@H]1O.Cl`, the inhibition turned out to be 17.1% in assay [1]; 36.6% in assay [7]; 6.6% in assay [8]; 10.3% in assay [10]; 33.5% in assay [22]; 16.3% in assay [17]. Moreover, in [19], the inhibition was determined as 16.5%. Besides, the negative logarithm of the IC50 (pIC50) in assay [2] is 3.50; in assay [4], 6.77; in assay [5], 4.24; in assay [11], 6.85; in assay [12] it was 5.59; in assay [13], 3.17. In addition, the pIC50 in [18] is 3.90; in [20], 6.25. Also, the IC50 result in assay [3], in [6], in assay [9], in assay [14], in assay [15] and in assay [16] was “Not Active” each time. For the same compound, the IC50 result in assay [21] is “Not Active”.
As for `CCCCCCCCCCC[C@]1(CO)NC[C@H](O)[C@@H](O)[C@@H]1O.Cl`, the inhibition turned out to be 0% in assay [1]; 3.7% in assay [23]; 10% in assay [7]; 2.1% in assay [8]; 6.6% in assay [10]; 25.2% in [24]. Besides, the inhibition was found to be 20.3% in assay [22], 4.5% in assay [17] and 0% in assay [19]. Moreover, the IC50 result in assay [2], in [3], in assay [6], in assay [9], in assay [13] and in assay [14] was “Not Active” throughout. For the same compound, the IC50 result in assay [15], in assay [16] and in assay [21] was “Not Active” each time. The negative logarithm of the IC50 (pIC50) in assay [4] was 7.49; in [5], 5.44; in assay [11], 7.70; in assay [12] it was 5.96; in assay [18], 4.15; in [20], 6.72.
`CCCCCCCCCC[C@]1(CO)NC[C@H](O)[C@@H](O)[C@@H]1O.Cl`: the inhibition in [1] was found to be 9.2%; in assay [7] it was 10%; in [8], 4.3%; in assay [10], 0.9%; in assay [24], 24.4%; in assay [22] it was 5.7%. Besides, the inhibition in assay [17] and in assay [19] was 0% throughout. The pIC50 in assay [2] is 4.68; in [4] it was 6.92; in assay [5], 4.74; in [11], 7.48; in [12] it was 4.89; in assay [20], 5.77. The IC50 entry in [3], in assay [6], in assay [9], in assay [13], in assay [14] and in [15] was “Not Active” in each case. Besides, the IC50 result in [16] and in assay [21] was “Not Active” in each case.

By inhibition is commonly meant the share of the control response that was lost under treatment. By pIC50 is commonly meant the IC50 on a negative log10 scale, so that one unit is a factor of ten.
